Like-named read-outs stand apart in the source and are kept apart here.
Assays:
[1] = cited from earlier work
[2] = test system: MeCP2-repressed (MR) long genes in MeCP2 knockdown primary cortical neurons; experiment: Nanostring nCounter expression of MeCP2-repressed long genes in MeCP2 shRNA knockdown primary cortical neurons treated with topotecan; type: cell-based, mouse
Method: Primary cortical neurons were prepared from E16.5 mouse embryos and cultured as described by Kim et al. For lentiviral-mediated shRNA knockdown, virus was prepared as described in Tiscornia et al.^48 using the MeCP2 shRNA and control shRNA plasmids previously validated in Zhou et al.^49. Virus was concentrated and titrated using the GFP signal expressed from IRES GFP in the virus. After one day in vitro (DIV), cells were infected with lentivirus (knockdown or control) at an MOI of ˜5, such that >90% of cells were infected. […] RNA samples were processed and analyzed using the Nanostring nCounter assay as described above, with the exception that 6 control genes were used for normalization. […]
For non-amplification-based gene expression analysis, Nanostring nCounter reporter CodeSets were designed to detect candidate MeCP2-repressed genes in 250 ng of total RNA extracted from MeCP2 KO and R306C mice. […] Briefly, total RNA was incubated at 65° C. with reporter and capture probes in hybridization buffer overnight, and captured probes were purified and analyzed on the nCounter Digital Analyzer. […] Significant differences between wild-type and MeCP2 KO or MeCP2 R306C samples (p<0.01) were also detected by paired two-tailed t-test comparing the paired mean values for each gene (averaged across samples within each genotype) between genotypes

[3] = test system: MeCP2 knockdown primary cortical neurons; experiment: Ribosomal RNA (Bioanalyzer 18S/28S) and total RNA content of MeCP2 knockdown neurons treated with topotecan; type: cell-based, mouse; settings: 50 nM topotecan
[4] = test system: MeCP2 hemizygous male mice; experiment: In vivo topotecan treatment by intracerebroventricular osmotic pump: survival and behavior score; set-up: species or system mouse; settings: 25 μM topotecan in 28-day osmotic pump to right lateral ventricle, 8 week old mice, N=7-8
Method: MeCP2 hemizygous male mice at 8 weeks of age (Jackson Labs) were separated into two equal groups based weight. Using standard stereotaxic techniques, cannula (Alzet, Brain Infusion Kit 3) were guided to the right lateral ventricle (from bregma; A/P 1 mm, LV 1 mm) and connected to an osmotic pump (Alzet, 1004, 28-day release) that was implanted subcutaneously. The osmotic pumps had been previously loaded with either vehicle (50 mM tartaric acid) or 25 μM topotecan and primed at 37° C. for approximately 2 days prior to implantation. All mice survived surgery and the following postoperative day. Survival monitoring began on postoperative day 2 and behavioral scoring began on postoperative day 4. MeCP2 behavior was scored as previously reported by Guy et al. Science 2005. Briefly, 6 behavioral domains are monitored to capture the progression of the MeCP2 phenotype: locomotor activity, gait, hindlimb clasp, tremor, breathing, and overall condition. Each behavioral domain is scored as 0 (absence), 1 (mild to moderate), or 2 (severe), and summed to give the total behavioral score. Survival statistics: p=0.09; Mantel-Cox. Behavioral statistics: * p<0.05; 2-way ANOVA, Fisher's LSD. N=7-8.

Structure (SMILES)	doxorubicin concentrations in the brain ([1]; injection of the drug alone or the uncoated nanoparticle)	doxorubicin concentrations in the brain ([1]; nanoparticles overcoated with polysorbate 80, intravenous injection of 5 mg/kg)	concentration of topotecan that most effectively reverses overexpression of long genes ([2]; MeCP2 knockdown cortical neurons)	reversal of long gene misregulation (up-regulation of long genes after MeCP2 knockdown) ([2]; cultured cortical neurons, MeCP2 RNAi knockdown, topotecan from DIV 4 to DIV 10)	effect on decreased ribosomal RNA content of neurons lacking MeCP2 [3]	Behavioral statistics, p (2-way ANOVA, Fisher's LSD), total behavioral score, topotecan versus vehicle [4]	Survival statistics, p (Mantel-Cox), topotecan versus vehicle [4]
COc1cccc2c1C(=O)c1c(O)c3c(c(O)c1C2=O)C[C@@](O)(C(=O)CO)C[C@@H]3O[C@H]1C[C@H](N)[C@H](O)[C@H](C)O1 [doxorubicin]	no detectable increase	up to 6 μg/g					
CC[C@@]1(O)C(=O)OCc2c1cc1n(c2=O)Cc2cc3c(CN(C)C)c(O)ccc3nc2-1 [topotecan, Topotecan]			50 nM	dose-dependent reversal of long gene misregulation	partially reverses the decreased ribosomal RNA content	< 0.05	0.09

Source: US20180318285A1, “METHODS FOR TREATMENT OF AUTISM SPECTRUM DISORDERS” (PRESIDENT AND FELLOWS OF HARVARD COLLEGE, priority 2015, published 2018)
